Measurements taken from US12178842B2, “PCSK9 antagonist compounds” (MERCK SHARP & DOHME LLC, priority 2019, dated 2024).

Experiments:
Format in all cases: binding
PCSK9 [1] = target: T1, PCSK9 (Homo sapiens, UniProt Q8NBP7); assay: PCSK9 Alexa FRET Standard TR-FRET assay; details: Ki calculated from IC50 and KD of AF cyclic peptide Reagent A; 0.5 nM PCSK9, 20 nM AF cyclic peptide; read-out: Alexa FRET Stdt TR-FRET
T1 construct: biotin (biotinylated); purchased
Experimental: A solution containing 1 nM biotinylated PCSK9+2.5 nM Lance Streptavidin Europium (Strep-Eu) is made in 50 mM HEPES pH 7.4, 0.15 M NaCl, 5 mM CaCl2, 0.01% BSA, and 0.01% Surfactant P20. A separate solution containing 40 nM of the AlexaFluor tagged cyclic peptide is made in the same buffer system. An Echo is used to transfer 0.750 ul of compound to an assay plate followed by the addition of 15 ul of PCSK9+Stept-Eu and 15 ul of AF peptide. The final assay volume is 30.750 ul containing 0.5 nM PCSK9, 1.25 nM Strep-Eu, and 20 nM AF cyclic peptide. The reaction is incubated at room temperature for at least two hours prior to fluorescence measurements using an Envision Multilabel Reader. IC50 values are determined by fitting data to a sigmoidal dose-response curve using nonlinear regression. Ki is then calculated from the Ic50 and the KD of AF cyclic peptide. Counts (B-counts) of the europium-labeled PCSK9 are followed to observe if compounds are adversely PCSK9. A fall off of the B-counts likely indicates a false positive of inhibition. Data from this procedure is reported as “A=‘numerical value’ (nanomolar)”

PCSK9 [2] = target: T1, PCSK9; assay: PCSK9 Alexa FRET Plus TR-FRET assay
Experimental: A separate solution containing 1920 nM of the AlexaFluor tagged cyclic peptide is made in the same buffer system. […] The reaction is incubated at room temperature for at least two hours prior to fluorescence measurements using an Envision Multilabel Reader. IC50 values are determined by fitting data to a sigmoidal dose-response curve using nonlinear regression. Ki is then calculated from the Ic50 and the KD of AF cyclic peptide. Counts (B-counts) of the europium-labeled PCSK9 are followed to observe if compounds are adversely affecting PCSK9. A fall off of the B-counts is likely indicates a false positive of inhibition. Data from this procedure is reported as “P=‘numerical value’ (nanomolar)”

PCSK9 [3] = target: T1, PCSK9; assay: PCSK9 Alexa FRET Ultra TR-FRET assay
Experimental: A separate solution containing 1920 nM of the AlexaFluor tagged cyclic peptide is made in the same buffer system. […] The reaction is incubated at room temperature for at least two hours prior to fluorescence measurements using an Envision Multilabel Reader. IC50 values are determined by fitting data to a sigmoidal dose-response curve using nonlinear regression. Ki is then calculated from the Ic50 and the KD of AF cyclic peptide. Counts (B-counts) of the europium-labeled PCSK9 are followed to observe if compounds are adversely affecting PCSK9. A fall off of the B-counts is likely indicates a false positive of inhibition. Data from this procedure is reported as “Ki Ultra=‘numerical value’ (data reported is nanomolar)”

[4] = Ki calculated from IC50 and KD of AF cyclic peptide Reagent B, 0.5 nM PCSK9, 960 nM AF cyclic peptide, read-out: Alexa FRET Plus TR-FRET
[5] = Ki Ultra, calculated from IC50 and KD of AF cyclic peptide, 0.5 nM PCSK9, 960 nM AF cyclic peptide, read-out: Alexa FRET Ultra TR-FRET

T1 sequence (Q8NBP7 153-692): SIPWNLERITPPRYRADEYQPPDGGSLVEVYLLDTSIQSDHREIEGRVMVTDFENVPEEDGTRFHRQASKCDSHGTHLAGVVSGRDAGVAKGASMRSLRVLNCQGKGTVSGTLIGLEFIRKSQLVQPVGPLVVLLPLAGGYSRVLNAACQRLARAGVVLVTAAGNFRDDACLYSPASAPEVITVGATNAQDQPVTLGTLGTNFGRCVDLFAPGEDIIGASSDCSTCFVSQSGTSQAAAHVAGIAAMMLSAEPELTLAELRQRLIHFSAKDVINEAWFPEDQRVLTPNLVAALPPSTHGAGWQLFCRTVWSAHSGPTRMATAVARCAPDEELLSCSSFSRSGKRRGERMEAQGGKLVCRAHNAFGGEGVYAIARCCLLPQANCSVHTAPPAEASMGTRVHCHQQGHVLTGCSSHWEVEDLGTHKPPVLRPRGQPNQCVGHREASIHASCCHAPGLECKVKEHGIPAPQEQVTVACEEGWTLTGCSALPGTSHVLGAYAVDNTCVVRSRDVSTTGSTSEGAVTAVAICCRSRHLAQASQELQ

Ki (PCSK9 [1]) [pM]	Ki (PCSK9 [2]; [4]) [pM]	Ki (PCSK9 [3]; [5]) [pM]	SMILES	Ki (PCSK9 [2]) [pM]	Ki (PCSK9 [3]) [pM]
< 1260	< 6	1	CCCCCCC(=O)NCCCCCCCC(=O)N[C@@H](CCC(=O)NCCOCCOCC(=O)NCCOCCOCC(=O)NCC[N+](C)(C)CCCCCC(=O)NC[C@H]1NC(=O)[C@H](C)NC(=O)CCC(=O)N2CCCCCCn3cc(c4cc(F)ccc43)C[C@@H]3NC(=O)[C@H](Cc4cccc(c4)CNC(=O)CO[C@H]4CCN(C3=O)[C@@H]4C(=O)N[C@@H]([C@@H](C)O)C(=O)N[C@@H](Cc3ccc(OC)cc3)C(=O)N3CCC[C@@]3(C)C(=O)NCCc3ccc(cc3)C2)NC1=O)C(=O)O [Ex-19]	–	–
< 1260	< 6	1	CCCCCCC(=O)NCCCCCCCC(=O)NCC[N+](C)(C)CCOCCOCCC(=O)NC[C@H]1NC(=O)[C@H](C)NC(=O)CCC(=O)N2CCCCCCn3cc(c4cc(F)ccc43)C[C@@H]3NC(=O)[C@H](Cc4cccc(c4)CNC(=O)CO[C@H]4CCN(C3=O)[C@@H]4C(=O)N[C@@H]([C@@H](C)O)C(=O)N[C@@H](Cc3ccc(OC)cc3)C(=O)N3CCC[C@@]3(C)C(=O)NCCc3ccc(cc3)C2)NC1=O [Ex-20]	–	–
< 1260	10	1	CCCCCC/C=C\CCCCCCCC(=O)N[C@@H](CCC(=O)NCCOCCOCC(=O)NCCOCCOCC(=O)NCC[N+](C)(C)CCCCCC(=O)NC[C@H]1NC(=O)[C@H](C)NC(=O)CCC(=O)N2CCCCCCn3cc(c4cc(F)ccc43)C[C@@H]3NC(=O)[C@H](Cc4cccc(c4)CNC(=O)CO[C@H]4CCN(C3=O)[C@@H]4C(=O)N[C@@H]([C@@H](C)O)C(=O)N[C@@H](Cc3ccc(OC)cc3)C(=O)N3CCC[C@@]3(C)C(=O)NCCc3ccc(cc3)C2)NC1=O)C(=O)O [Ex-21]	–	–
< 1260	15	4	COc1ccc(C[C@@H]2NC(=O)[C@H]([C@@H](C)O)NC(=O)[C@@H]3[C@@H]4CCN3C(=O)[C@@H]3Cc5cn(c6ccc(F)cc56)CCCCCCN(Cc5ccc(cc5)CCNC(=O)[C@]5(C)CCCN5C2=O)C(=O)CCC(=O)N[C@@H](C)C(=O)N[C@H](CNC(=O)CCOCCOCC[N+](C)(C)CCNC(=O)COCCOCCNC(=O)COCCOCCNC(=O)CC[C@H](NC(=O)CCCCCCCCCCCCCCCCC(=O)O)C(=O)O)C(=O)N[C@@H](Cc2cccc(c2)CNC(=O)CO4)C(=O)N3)cc1 [Ex-22]	–	–
< 1260	< 6	7	COc1ccc(C[C@@H]2NC(=O)[C@H]([C@@H](C)O)NC(=O)[C@@H]3[C@@H]4CCN3C(=O)[C@@H]3Cc5cn(c6ccc(F)cc56)CCCCCCN(Cc5ccc(cc5)CCNC(=O)[C@]5(C)CCCN5C2=O)C(=O)CCC(=O)N[C@@H](C)C(=O)N[C@H](CNC(=O)CCOCCOCC[N+](C)(C)CCNC(=O)CCCCCCCCCCCCCCCCC(=O)O)C(=O)N[C@@H](Cc2cccc(c2)CNC(=O)CO4)C(=O)N3)cc1 [Ex-23]	–	–
< 1260	9	18	COc1ccc(C[C@@H]2NC(=O)[C@H]([C@@H](C)O)NC(=O)[C@@H]3[C@@H]4CCN3C(=O)[C@@H]3Cc5cn(c6ccc(F)cc56)CCCCCCN(Cc5ccc(cc5)CCNC(=O)[C@]5(C)CCCN5C2=O)C(=O)CCC(=O)N[C@@H](C)C(=O)N[C@H](CNC(=O)CCOCCOCCNC(=O)CCCCCCCCCCCCCCCCC(=O)O)C(=O)N[C@@H](Cc2cccc(c2)CNC(=O)CO4)C(=O)N3)cc1 [Ex-24]	–	–
< 1260	6	9	COc1ccc(C[C@@H]2NC(=O)[C@H]([C@@H](C)O)NC(=O)[C@@H]3[C@@H]4CCN3C(=O)[C@@H]3Cc5cn(c6ccc(F)cc56)C/C=C/CCCN(Cc5ccc(cc5)CCNC(=O)[C@]5(C)CCCN5C2=O)C(=O)CCC(=O)N[C@@H](C)C(=O)N[C@H](CNC(=O)CCCCC[N+](C)(C)CCNC(=O)COCCOCCNC(=O)COCCOCCNC(=O)CC[C@H](NC(=O)CCCCCCCCCCCCCCCCC(=O)O)C(=O)O)C(=O)N[C@@H](Cc2cccc(c2)CNC(=O)CO4)C(=O)N3)cc1 [Ex-25]	–	–
< 1260	6	8	COc1ccc(C[C@@H]2NC(=O)[C@H]([C@@H](C)O)NC(=O)[C@@H]3[C@@H]4CCN3C(=O)[C@@H]3Cc5cn(c6ccc(F)cc56)CCCCCCN(Cc5ccc(cc5)CCNC(=O)[C@]5(C)CCCN5C2=O)C(=O)CCC(=O)N[C@@H](C)C(=O)N[C@H](CNC(=O)CCCCC[N+](C)(C)CCNC(=O)CCCCC[N+](C)(C)CCNC(=O)COCCOCCNC(=O)COCCOCCNC(=O)CC[C@H](NC(=O)CCCCCCCCCCCCCCCCC(=O)O)C(=O)O)C(=O)N[C@@H](Cc2cccc(c2)CNC(=O)CO4)C(=O)N3)cc1 [Ex-26]	–	–
< 1260	13	10	COc1ccc(C[C@@H]2NC(=O)[C@H]([C@@H](C)O)NC(=O)[C@@H]3[C@@H]4CCN3C(=O)[C@@H]3Cc5cn(c6ccc(F)cc56)CCCCCCN(Cc5ccc(cc5)CCNC(=O)[C@]5(C)CCCN5C2=O)C(=O)CCC(=O)N[C@@H](C)C(=O)N[C@H](CNC(=O)COCCOCCOCCOCCNC(=O)CCCCC[N+](C)(C)CCNC(=O)COCCOCCNC(=O)COCCOCCNC(=O)CC[C@@H](NC(=O)CCCCCCCCCCCCCCCCC(=O)O)C(=O)O)C(=O)N[C@@H](Cc2cccc(c2)CNC(=O)CO4)C(=O)N3)cc1 [Ex-28]	–	–
< 1260	11	13	COc1ccc(C[C@@H]2NC(=O)[C@H]([C@@H](C)O)NC(=O)[C@@H]3[C@@H]4CCN3C(=O)[C@@H]3Cc5cn(c6ccc(F)cc56)CCCCCCN(Cc5ccc(cc5)CCNC(=O)[C@]5(C)CCCN5C2=O)C(=O)CCC(=O)N[C@@H](C)C(=O)N[C@H](CNC(=O)COCCOCCNC(=O)COCCOCCNC(=O)CCOCCOCC[N+](C)(C)CCNC(=O)COCCOCCNC(=O)COCCOCCNC(=O)CC[C@H](NC(=O)CCCCCCCCCCCCCCCCC(=O)O)C(=O)O)C(=O)N[C@@H](Cc2cccc(c2)CNC(=O)CO4)C(=O)N3)cc1 [Ex-29]	–	–
< 1260	< 6	6	COc1ccc(C[C@@H]2NC(=O)[C@H]([C@@H](C)O)NC(=O)[C@@H]3[C@@H]4CCN3C(=O)[C@@H]3Cc5cn(c6ccc(F)cc56)CCCCCCN(Cc5ccc(cc5)CCNC(=O)[C@]5(C)CCCN5C2=O)C(=O)CCC(=O)N[C@@H](C)C(=O)N[C@H](CNC(=O)COCCOCC[N+](C)(C)CCOCCNC(=O)COCCOCCNC(=O)COCCOCCNC(=O)CC[C@H](NC(=O)CCCCCCCCCCCCCCCCC(=O)O)C(=O)O)C(=O)N[C@@H](Cc2cccc(c2)CNC(=O)CO4)C(=O)N3)cc1 [Ex-31]	–	–
< 1260	< 6	3	COc1ccc(C[C@@H]2NC(=O)[C@H]([C@@H](C)O)NC(=O)[C@@H]3[C@@H]4CCN3C(=O)[C@@H]3Cc5cn(c6ccc(F)cc56)CCCCCCN(Cc5ccc(cc5)CCNC(=O)[C@]5(C)CCCN5C2=O)C(=O)CCC(=O)N[C@@H](C)C(=O)N[C@H](CNC(=O)CCOCCOCC[N+](C)(C)CCNC(=O)COCCOCCNC(=O)COCCOCCNC(=O)CC[C@H](NC(=O)CC[C@H](NC(=O)CCCCCCCCCCCCCCC(=O)O)C(=O)O)C(=O)O)C(=O)N[C@@H](Cc2cccc(c2)CNC(=O)CO4)C(=O)N3)cc1 [Ex-34]	–	–
< 1260	7	9	COc1ccc(C[C@@H]2NC(=O)[C@H]([C@@H](C)O)NC(=O)[C@@H]3[C@@H]4CCN3C(=O)[C@@H]3Cc5cn(c6ccc(F)cc56)CCCCCCN(Cc5ccc(cc5)CCNC(=O)[C@]5(C)CCCN5C2=O)C(=O)CCC(=O)N[C@@H](C)C(=O)N[C@H](CNC(=O)COCC[N+](C)(C)CCOCCNC(=O)COCCOCCNC(=O)COCCOCCNC(=O)CC[C@H](NC(=O)CCCCCCCCCCCCCCCCC(=O)O)C(=O)O)C(=O)N[C@@H](Cc2cccc(c2)CNC(=O)CO4)C(=O)N3)cc1 [Ex-35]	–	–

SMILES	Ki (PCSK9 [1]) [pM]	Ki (PCSK9 [2]; [4]) [pM]	Ki (PCSK9 [3]; [5]) [pM]	Ki (PCSK9 [2]) [pM]	Ki (PCSK9 [3]) [pM]
COc1ccc(C[C@@H]2NC(=O)[C@H]([C@@H](C)O)NC(=O)[C@@H]3[C@@H]4CCN3C(=O)[C@@H]3Cc5cn(c6ccc(F)cc56)CCCCCCN(Cc5ccc(cc5)CCNC(=O)[C@]5(C)CCCN5C2=O)C(=O)CCC(=O)N[C@@H](C)C(=O)N[C@H](CNC(=O)CCCCC[N+](C)(C)CCNC(=O)COCCOCCNC(=O)COCCOCCNC(=O)CC[C@H](NC(=O)CCCCCCCCCCCCCCCCCCC(=O)O)C(=O)O)C(=O)N[C@@H](Cc2cccc(c2)CNC(=O)CO4)C(=O)N3)cc1 [Ex-27]	< 1260	–	–	14	6
